# Key:
# [1] = Oral bioavailability in mouse at 30 mg/kg; type: ADME, organism-based; conditions: in vivo
# [2] = biological target: T1, von Hippel-Lindau disease tumor suppressor/SWI/SNF-related matrix-associated actin-dependent regulator of chromatin subfamily A member 2 (Homo sapiens, UniProt P51531+P40337); experiment: Protac activity at VHL/SMARCA2 in human RKO cells assessed as protein degradation incubated for 18 hrs by capillary electrophoresis analysis; type: cell-based
# Target sequence in this assay (P51531 whole entry): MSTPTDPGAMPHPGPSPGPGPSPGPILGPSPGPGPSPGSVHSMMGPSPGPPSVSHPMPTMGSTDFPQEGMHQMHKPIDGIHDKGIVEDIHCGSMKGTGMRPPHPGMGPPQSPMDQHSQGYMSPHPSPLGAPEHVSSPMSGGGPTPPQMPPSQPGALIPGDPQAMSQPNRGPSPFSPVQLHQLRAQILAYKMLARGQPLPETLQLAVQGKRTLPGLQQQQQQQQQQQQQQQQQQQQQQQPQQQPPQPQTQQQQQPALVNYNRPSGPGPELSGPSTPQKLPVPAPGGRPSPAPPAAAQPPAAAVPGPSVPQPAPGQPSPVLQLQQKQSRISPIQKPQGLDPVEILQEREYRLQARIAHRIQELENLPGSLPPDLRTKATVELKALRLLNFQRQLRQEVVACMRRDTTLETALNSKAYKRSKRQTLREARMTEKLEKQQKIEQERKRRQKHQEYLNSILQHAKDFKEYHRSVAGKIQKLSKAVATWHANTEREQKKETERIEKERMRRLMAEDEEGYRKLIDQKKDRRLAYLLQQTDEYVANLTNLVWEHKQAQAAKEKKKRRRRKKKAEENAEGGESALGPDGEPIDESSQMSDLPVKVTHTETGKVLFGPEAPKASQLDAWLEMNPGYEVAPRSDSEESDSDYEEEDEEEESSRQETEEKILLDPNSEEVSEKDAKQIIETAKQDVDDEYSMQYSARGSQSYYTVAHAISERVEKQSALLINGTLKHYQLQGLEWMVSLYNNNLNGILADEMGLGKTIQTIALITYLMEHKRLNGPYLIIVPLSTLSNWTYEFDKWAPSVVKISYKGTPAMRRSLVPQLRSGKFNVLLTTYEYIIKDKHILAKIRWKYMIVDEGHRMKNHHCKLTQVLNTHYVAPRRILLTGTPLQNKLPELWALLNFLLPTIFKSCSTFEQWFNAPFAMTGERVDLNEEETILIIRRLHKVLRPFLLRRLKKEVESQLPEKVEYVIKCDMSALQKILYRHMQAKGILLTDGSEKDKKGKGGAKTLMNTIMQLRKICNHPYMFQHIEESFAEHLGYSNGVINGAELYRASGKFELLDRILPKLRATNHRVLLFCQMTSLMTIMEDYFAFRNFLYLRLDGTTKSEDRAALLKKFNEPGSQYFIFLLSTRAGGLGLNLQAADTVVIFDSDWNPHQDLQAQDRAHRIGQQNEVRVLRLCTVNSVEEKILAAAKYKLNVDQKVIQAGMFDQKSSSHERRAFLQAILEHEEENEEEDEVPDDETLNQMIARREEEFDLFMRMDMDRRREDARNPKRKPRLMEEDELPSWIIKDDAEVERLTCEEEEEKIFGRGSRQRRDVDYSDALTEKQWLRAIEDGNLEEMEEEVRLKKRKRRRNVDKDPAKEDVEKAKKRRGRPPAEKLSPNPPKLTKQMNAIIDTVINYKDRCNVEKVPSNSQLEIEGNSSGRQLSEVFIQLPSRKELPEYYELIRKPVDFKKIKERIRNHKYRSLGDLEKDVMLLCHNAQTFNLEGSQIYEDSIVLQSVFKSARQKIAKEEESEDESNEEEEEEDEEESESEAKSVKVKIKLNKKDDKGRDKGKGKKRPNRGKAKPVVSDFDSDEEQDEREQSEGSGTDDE
# Target sequence in this assay (P40337 whole entry): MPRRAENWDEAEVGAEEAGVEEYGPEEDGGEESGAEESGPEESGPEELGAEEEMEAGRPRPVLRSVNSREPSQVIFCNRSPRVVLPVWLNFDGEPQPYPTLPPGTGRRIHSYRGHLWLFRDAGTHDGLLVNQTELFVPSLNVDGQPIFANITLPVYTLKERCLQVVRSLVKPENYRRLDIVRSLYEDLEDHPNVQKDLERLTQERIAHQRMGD
# [3] = biological target: Protein cereblon/Tyrosine-protein kinase BTK (Homo sapiens) (UniProt Q06187+Q96SW2); experiment: Protac activity at CRBN/BTK in human NAMALVA cells assessed as protein degradation by measuring maximal efficacy after 24 hrs by Western blot analysis relative to control; type: cell-based
# [4] = biological target: T2, von Hippel-Lindau disease tumor suppressor/Fibroblast growth factor receptor 1 (Homo sapiens, UniProt P11362+P40337); experiment: Protac activity at VHL/FGFR1 in human CC-LP-1 cells assessed as protein degradation by measuring maximal efficacy relative to control; type: cell-based
# [5] = biological target: T2, von Hippel-Lindau disease tumor suppressor/Fibroblast growth factor receptor 1; experiment: Protac activity at VHL/FGFR1 in human CC-LP-1 cells assessed as protein degradation; type: cell-based
# [6] = biological target: T3, Protein polybromo-1/von Hippel-Lindau disease tumor suppressor (Homo sapiens, UniProt Q86U86+P40337); experiment: Protac activity at VHL/PBRM1 in human MV4-11 cells assessed as protein degradation; type: cell-based
# [7] = biological target: T1, von Hippel-Lindau disease tumor suppressor/SWI/SNF-related matrix-associated actin-dependent regulator of chromatin subfamily A member 2; experiment: Protac activity at VHL/SMARCA2 in human NCI-H1568 cells assessed as protein degradation; type: cell-based
# Target sequence in this assay (P51531 whole entry): as the sequence (P51531 whole entry) above
# Target sequence in this assay (P40337 whole entry): as the sequence (P40337 whole entry) above
# [8] = biological target: T3, Protein polybromo-1/von Hippel-Lindau disease tumor suppressor; experiment: Protac activity at VHL/PBRM1 in human NCI-H1568 cells assessed as protein degradation; type: cell-based
# [9] = biological target: BRD4/E3 ubiquitin-protein ligase Mdm2 (Homo sapiens) (UniProt Q00987+O60885); experiment: Protac activity at MDM2/BRD4 in human HCT-116 cells assessed as induction of protein degradation by measuring maximal efficacy relative to control; type: cell-based
# [10] = biological target: T4, von Hippel-Lindau disease tumor suppressor/Leucine-rich repeat serine/threonine-protein kinase 2 (Mus musculus) (UniProt Q5S006+P40338); experiment: Protac activity at VHL/wild type LRRK2 in mouse MEF cells assessed as induction of protein degradation by measuring maximal efficacy after 4 hrs by Western blot analysis relative to control; type: cell-based
# [11] = tested on: von Hippel-Lindau disease tumor suppressor/Leucine-rich repeat serine/threonine-protein kinase 2 (Mus musculus), Q5S006+P40338 [G2019S]; experiment: Protac activity at VHL/LRRK2 G2019S mutant in mouse MEF cells assessed as protein degradation at 1 uM after 4 hrs by Western blot analysis relative to control; type: cell-based
# [12] = tested on: von Hippel-Lindau disease tumor suppressor/Leucine-rich repeat serine/threonine-protein kinase 2 (Mus musculus), Q5S006+P40338 [G2019S]; experiment: Protac activity at VHL/LRRK2 G2019S mutant in mouse MEF cells assessed as protein degradation at 33 nM after 4 hrs by Western blot analysis relative to control; type: cell-based
# [13] = biological target: von Hippel-Lindau disease tumor suppressor/Leucine-rich repeat serine/threonine-protein kinase 2 (Mus musculus, UniProt Q5S006+P40338); experiment: Protac activity at VHL/wild type LRRK2 in mouse MEF cells assessed as protein degradation after 4 hrs by Western blot analysis; type: cell-based
# [14] = Tmax in C57BL/6 mouse at 30 mg/kg, po; type: ADME, organism-based; conditions: in vivo
# [15] = biological target: T4, von Hippel-Lindau disease tumor suppressor/Leucine-rich repeat serine/threonine-protein kinase 2 (Mus musculus); experiment: Protac activity at VHL/wild type LRRK2 in mouse MEF cells assessed as protein degradation at 33 nM after 4 hrs by Western blot analysis relative to control; type: cell-based
# [16] = Tmax in C57BL/6 mouse at 30 mg/kg, ip; type: ADME, organism-based; conditions: in vivo
# [17] = Cmax in C57BL/6 mouse at 30 mg/kg, ip; type: ADME, organism-based; design: dose 30 mg/kg, route ip; conditions: in vivo
# [18] = Oral bioavailability in C57BL/6 mouse at 30 mg/kg; type: ADME, organism-based; conditions: in vivo
# [19] = Cmax in C57BL/6 mouse at 30 mg/kg, po; type: ADME, organism-based; design: dose 30 mg/kg, route po; conditions: in vivo
# [20] = tested on: von Hippel-Lindau disease tumor suppressor/Leucine-rich repeat serine/threonine-protein kinase 2 (Mus musculus), Q5S006+P40338 [G2019S]; experiment: Protac activity at VHL/LRRK2 G2019S mutant in mouse MEF cells assessed as induction of protein degradation by measuring maximal efficacy after 4 hrs by Western blot analysis relative to control; type: cell-based
# [21] = biological target: von Hippel-Lindau disease tumor suppressor/Leucine-rich repeat serine/threonine-protein kinase 2 (Mus musculus, UniProt Q5S006+P40338, G2019S); experiment: Protac activity at VHL/LRRK2 G2019S mutant in mouse MEF cells assessed as protein degradation after 4 hrs by Western blot analysis; type: cell-based
# [22] = biological target: T1, von Hippel-Lindau disease tumor suppressor/SWI/SNF-related matrix-associated actin-dependent regulator of chromatin subfamily A member 2; experiment: Protac activity at VHL/SMARCA2 in human RKO cells assessed as induction of protein degradation by measuring maximal efficacy incubated for 18 hrs by capillary electrophoresis analysis relative to control; type: cell-based
# [23] = biological target: T5, Protein cereblon/Bromodomain-containing protein 4 (Homo sapiens, UniProt O60885+Q96SW2); experiment: Protac activity at CRBN/BRD4 in human 22Rv1 cells assessed as degradation of BRD4; type: cell-based
# [24] = biological target: T6, Protein cereblon/Myc proto-oncogene protein (Homo sapiens, UniProt P01106+Q96SW2); experiment: PROTAC activity at MYC/CRBN in human HCT-116 cells assessed as degradation; type: cell-based
# [25] = biological target: T6, Protein cereblon/Myc proto-oncogene protein; experiment: PROTAC activity at MYC/CRBN in human PSN1 cells assessed as degradation; type: cell-based
# [26] = biological target: T5, Protein cereblon/Bromodomain-containing protein 4; experiment: Protac activity at CRBN/BRD4 in HEK293 cells assessed as protein degradation by measuring maximal efficacy relative to control; type: cell-based
# [27] = biological target: von Hippel-Lindau disease tumor suppressor/Bcl-2-like protein 1 (Homo sapiens, UniProt Q07817+P40337); experiment: Protac activity at VHL/BCL-xL in human HEK293T cells assessed as protein degradation; type: cell-based
# [28] = biological target: von Hippel-Lindau disease tumor suppressor/Apoptosis regulator Bcl-2 (Homo sapiens, UniProt P10415+P40337); experiment: Protac activity at VHL/BCL-2 in human HEK293T cells assessed as protein degradation; type: cell-based
# [29] = biological target: E3 ubiquitin-protein ligase XIAP/Tyrosine-protein kinase BTK (Homo sapiens, UniProt P98170+Q06187); experiment: Protac activity at IAP/BTK in human THP-1 cells assessed as protein degradation; type: cell-based
# [30] = biological target: T7, Protein fem-1 homolog B/Bromodomain-containing protein 4 (Homo sapiens, UniProt O60885+Q9UK73); experiment: Protac activity at FEM1B/BRD4 in HEK293T cells assessed as degradation of BRD4; type: cell-based
# [31] = biological target: T7, Protein fem-1 homolog B/Bromodomain-containing protein 4; experiment: Protac activity at FEM1B/BRD4 in HEK293T cells assessed as induction of protein degradation by measuring maximal efficacy relative to control; type: cell-based
# [32] = biological target: T5, Protein cereblon/Bromodomain-containing protein 4; experiment: Protac activity at CRBN/BRD4 in HEK293T cells assessed as protein degradation by immunoblot analysis; type: cell-based
# [33] = biological target: von Hippel-Lindau disease tumor suppressor/ALK tyrosine kinase receptor (Homo sapiens, UniProt Q9UM73+P40337); experiment: Protac activity at VHL/ALK in human SR cells assessed as protein degradation
# T5 sequence (Q96SW2 whole entry, looked up, other chains not shown): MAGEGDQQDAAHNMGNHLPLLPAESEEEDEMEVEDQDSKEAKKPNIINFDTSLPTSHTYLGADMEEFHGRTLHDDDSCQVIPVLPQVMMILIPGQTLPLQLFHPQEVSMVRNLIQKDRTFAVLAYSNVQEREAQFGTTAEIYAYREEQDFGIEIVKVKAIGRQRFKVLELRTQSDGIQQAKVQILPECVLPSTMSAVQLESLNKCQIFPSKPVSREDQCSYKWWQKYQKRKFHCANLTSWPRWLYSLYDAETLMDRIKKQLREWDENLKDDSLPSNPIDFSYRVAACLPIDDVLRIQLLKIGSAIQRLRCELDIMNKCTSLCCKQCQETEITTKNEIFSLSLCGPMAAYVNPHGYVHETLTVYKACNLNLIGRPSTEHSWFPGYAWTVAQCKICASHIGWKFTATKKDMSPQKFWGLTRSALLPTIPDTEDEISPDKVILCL
# T4 sequence (P40338 whole entry, looked up): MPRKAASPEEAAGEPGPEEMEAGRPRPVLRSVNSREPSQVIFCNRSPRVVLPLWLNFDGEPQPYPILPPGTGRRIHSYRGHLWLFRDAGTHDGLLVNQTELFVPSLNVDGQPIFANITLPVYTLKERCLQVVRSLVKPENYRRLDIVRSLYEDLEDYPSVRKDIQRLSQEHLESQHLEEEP
# T4 sequence (Q5S006 whole entry, looked up): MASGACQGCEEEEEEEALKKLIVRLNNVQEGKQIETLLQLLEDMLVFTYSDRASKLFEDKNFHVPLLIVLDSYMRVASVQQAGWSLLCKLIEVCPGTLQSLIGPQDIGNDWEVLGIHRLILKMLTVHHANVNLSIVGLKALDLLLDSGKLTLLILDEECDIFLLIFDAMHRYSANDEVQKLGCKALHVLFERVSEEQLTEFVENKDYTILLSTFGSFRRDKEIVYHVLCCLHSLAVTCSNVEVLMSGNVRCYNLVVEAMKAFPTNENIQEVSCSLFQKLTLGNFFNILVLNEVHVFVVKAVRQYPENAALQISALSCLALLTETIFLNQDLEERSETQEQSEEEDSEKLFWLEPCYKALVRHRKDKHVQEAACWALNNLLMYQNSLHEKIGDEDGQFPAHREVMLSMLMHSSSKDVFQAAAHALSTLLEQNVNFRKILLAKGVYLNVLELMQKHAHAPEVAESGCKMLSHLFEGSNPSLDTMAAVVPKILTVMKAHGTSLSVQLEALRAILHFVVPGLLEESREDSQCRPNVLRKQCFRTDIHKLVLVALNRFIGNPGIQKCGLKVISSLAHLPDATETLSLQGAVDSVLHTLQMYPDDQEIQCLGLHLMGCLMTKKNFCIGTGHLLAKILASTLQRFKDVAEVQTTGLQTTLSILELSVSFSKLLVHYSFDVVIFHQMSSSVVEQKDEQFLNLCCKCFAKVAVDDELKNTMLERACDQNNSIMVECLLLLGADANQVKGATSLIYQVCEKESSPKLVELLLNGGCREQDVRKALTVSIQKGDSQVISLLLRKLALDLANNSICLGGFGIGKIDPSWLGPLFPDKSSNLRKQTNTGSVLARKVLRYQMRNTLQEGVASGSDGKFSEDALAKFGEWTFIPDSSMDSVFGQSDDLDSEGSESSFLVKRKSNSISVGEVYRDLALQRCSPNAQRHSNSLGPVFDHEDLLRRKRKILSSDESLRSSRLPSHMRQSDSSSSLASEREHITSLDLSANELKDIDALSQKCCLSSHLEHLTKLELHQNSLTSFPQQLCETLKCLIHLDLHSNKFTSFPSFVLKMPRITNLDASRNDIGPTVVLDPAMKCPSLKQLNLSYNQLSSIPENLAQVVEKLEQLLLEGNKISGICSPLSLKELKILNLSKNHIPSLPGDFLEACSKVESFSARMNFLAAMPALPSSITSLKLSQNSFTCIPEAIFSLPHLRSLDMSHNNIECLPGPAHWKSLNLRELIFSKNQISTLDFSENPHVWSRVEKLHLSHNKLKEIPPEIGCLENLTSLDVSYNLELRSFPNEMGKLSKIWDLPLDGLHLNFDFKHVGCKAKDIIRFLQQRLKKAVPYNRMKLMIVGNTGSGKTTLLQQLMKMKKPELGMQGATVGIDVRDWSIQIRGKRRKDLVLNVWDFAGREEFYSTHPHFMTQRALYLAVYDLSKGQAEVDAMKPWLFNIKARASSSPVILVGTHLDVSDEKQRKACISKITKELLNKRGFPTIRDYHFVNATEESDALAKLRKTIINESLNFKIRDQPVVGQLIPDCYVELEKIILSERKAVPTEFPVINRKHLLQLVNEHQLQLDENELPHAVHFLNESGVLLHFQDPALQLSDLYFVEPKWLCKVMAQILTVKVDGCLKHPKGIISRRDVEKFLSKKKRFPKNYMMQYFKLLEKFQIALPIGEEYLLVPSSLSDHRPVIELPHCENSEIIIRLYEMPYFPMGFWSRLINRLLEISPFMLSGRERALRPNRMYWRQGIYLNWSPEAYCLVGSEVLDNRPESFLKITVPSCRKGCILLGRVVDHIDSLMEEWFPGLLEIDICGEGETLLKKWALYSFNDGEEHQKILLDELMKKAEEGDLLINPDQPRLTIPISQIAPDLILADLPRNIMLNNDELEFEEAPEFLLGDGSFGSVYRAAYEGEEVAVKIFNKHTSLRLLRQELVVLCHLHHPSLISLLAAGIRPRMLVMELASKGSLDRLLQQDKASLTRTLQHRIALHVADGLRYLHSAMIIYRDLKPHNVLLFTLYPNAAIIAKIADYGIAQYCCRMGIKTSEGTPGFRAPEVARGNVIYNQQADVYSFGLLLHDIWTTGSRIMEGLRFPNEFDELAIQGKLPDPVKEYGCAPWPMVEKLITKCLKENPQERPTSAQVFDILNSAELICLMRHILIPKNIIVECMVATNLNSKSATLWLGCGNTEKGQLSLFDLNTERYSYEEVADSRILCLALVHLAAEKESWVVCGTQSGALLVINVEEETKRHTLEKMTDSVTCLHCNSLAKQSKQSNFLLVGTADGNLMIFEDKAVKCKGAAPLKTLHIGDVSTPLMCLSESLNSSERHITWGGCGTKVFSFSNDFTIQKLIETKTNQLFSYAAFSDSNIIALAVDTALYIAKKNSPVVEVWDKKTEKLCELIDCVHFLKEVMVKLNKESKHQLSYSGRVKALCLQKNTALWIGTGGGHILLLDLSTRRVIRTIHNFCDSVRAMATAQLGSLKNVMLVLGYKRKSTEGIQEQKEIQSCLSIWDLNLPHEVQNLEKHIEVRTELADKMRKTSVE
smiles,measurement,setting,value
Cc1ncsc1-c1ccc([C@H](CC[C@H](C)CCN2CCC(c3ccc4c(c3)n(C3CCCC3)c3nc(=O)c5c(Br)cccc5n43)CC2)NC(=O)C2C[C@@H](O)CN2C(=O)[C@@H](NC(=O)C2(F)CC2)C(C)(C)C)cc1 (some centres not stated),bioavailability,[1],22%
same,DC50,[2],0.001 µM
Nc1ncnc2c1c(-c1ccc(Oc3ccccc3)cc1)nn2C1CCN(CCOCCOCC(=O)Nc2ccc3c(c2)C(=O)N(C2CCC(=O)NC2=O)C3=O)CC1 (configuration not stated),Emax,[3],99%
COc1cc(OC)c(Cl)c(NC(=O)N(C)c2cc(Nc3ccc(N4CCN(CC(=O)N[C@H](C(=O)N5C[C@H](O)C[C@H]5C(=O)N[C@@H](C)c5ccc(-c6scnc6C)cc5)C(C)(C)C)CC4)cc3)ncn2)c1Cl,Emax,[4],85%
same,DC50,[5],0.00435 µM
Cc1ncsc1-c1ccc(CNC(=O)[C@@H]2C[C@@H](O)CN2C(=O)[C@@H](NC(=O)C2(F)CC2)C(C)(C)C)c(OCCOc2ccc(CN3CCN(c4cc(-c5ccccc5O)nnc4N)CC3)cc2)c1,DC50,[6],0.032 µM
same,DC50,[7],0.0033 µM
same,DC50,[8],0.0156 µM
COc1cc(C(=O)NCCOCCOCCOCCNC(=O)C[C@@H]2N=C(c3ccc(Cl)cc3)c3c(sc(C)c3C)-n3c(C)nnc32)ccc1NC(=O)[C@@H]1N[C@@H](CC(C)(C)C)[C@](C#N)(c2ccc(Cl)cc2F)[C@H]1c1cccc(Cl)c1F,Emax,[9],98%
CNc1nc(Nc2ccc(C(=O)N3CCN(C[C@H]4CC[C@H](CSC(C)(C)[C@H](NC(=O)C5(F)CC5)C(=O)N5C[C@H](O)C[C@@H]5C(=O)NCc5ccc(-c6scnc6C)cc5)CC4)CC3)cc2OC)ncc1Cl,Emax,[10],82%
same,Activity,[11],30%
same,Activity,[12],50%
same,DC50,[13],0.032 µM
same,Tmax,[14],2 h
same,Activity,[15],20%
same,Tmax,[16],0.25 h
same,Cmax,[17],7700 ng/mL
same,bioavailability,[18],15%
same,Cmax,[19],3620 ng/mL
same,Emax,[20],90%
same,DC50,[21],0.014 µM
Cc1ncsc1-c1ccc(OCCCN2CCC(c3ccc4c(c3)n(C3CCCC3)c3nc(=O)c5c(Br)cccc5n43)CC2)c(CNC(=O)[C@@H]2C[C@@H](O)CN2C(=O)[C@@H](NC(=O)C2(F)CC2)C(C)(C)C)c1,Emax,[22],46%
same,DC50,[2],0.078 µM
Cc1sc2c(c1C)C(c1ccc(Cl)cc1)=N[C@H](CC(=O)Nc1cccc(OCCOCCOCCNc3cccc4nnn(C5CCC(=O)NC5=O)c(=O)c34)c1)c1nnc(C)n1-2 (some centres not stated),DC50,[23],0.00032 µM
CC(C)c1ccc(/C=C2\SC(=O)N(CCCCCCCCNC(=O)c3ccc4c(c3)C(=O)N(C3CCC(=O)NC3=O)C4=O)C2=O)cc1 (configuration not stated),DC50,[24],5 µM
same,DC50,[25],~10 µM
Cc1sc2c(c1C)C(c1ccc(Cl)cc1)=N[C@@H](CC(=O)NCCCCNC(=O)COc1cccc3c1C(=O)N(C1CCC(=O)NC1=O)C3=O)c1nnc(C)n1-2 (some centres not stated),Emax,[26],93%
Cc1ncsc1-c1ccc([C@H](C)NC(=O)[C@@H]2C[C@@H](O)CN2C(=O)[C@@H](NC(=O)CCCCCCC(=O)N2CCN(C[C@]3(C)CCC(c4ccc(Cl)cc4)=C(CN4CCN(c5ccc(C(=O)NS(=O)(=O)c6ccc(N[C@H](CCN7CCOCC7)CSc7ccccc7)c(S(=O)(=O)C(F)(F)F)c6)cc5)CC4)C3)CC2)C(C)(C)C)cc1,DC50,[27],0.006 µM
same,DC50,[28],0.048 µM
CNc1nc(Nc2ccc(C(=O)N3CCN(CCCOc4cc(-c5scnc5C)ccc4CNC(=O)[C@H]4C[C@@H](O)CN4C(=O)[C@@H](NC(=O)C4(F)CC4)C(C)(C)C)CC3)cc2OC)ncc1Cl,Activity,[12],60%
Cc1ncsc1-c1ccc([C@H](CCCCCN2CCC(c3ccc4c(c3)n(C3CCCC3)c3nc(=O)c5c(Br)cccc5n43)CC2)NC(=O)C2C[C@@H](O)CN2C(=O)[C@@H](NC(=O)C2(F)CC2)C(C)(C)C)cc1 (some centres not stated),bioavailability,[1],3%
same,DC50,[2],0.032 µM
CN[C@@H](C)C(=O)N[C@H](C(=O)N1CCC[C@H]1c1nc(C(=O)c2ccc(F)cc2)cs1)C1CCN(CCCC(=O)N2CCC[C@@H](n3nc(-c4ccc(Oc5ccc(F)cc5F)cc4)c(C(N)=O)c3N)C2)CC1,DC50,[29],4.7 µM
Cc1sc2c(c1C)C(c1ccc(Cl)cc1)=N[C@@H](CC(=O)NCCCCNC(=O)CN1CCOc3cc(N(CCC#N)C(=O)CCl)ccc31)c1nnc(C)n1-2,DC50,[30],0.25 µM
same,Emax,[31],94%
COC(=O)C[C@@H]1N=C(c2ccc(Cl)cc2)c2c(sc(C(=O)NCCCCCNc3ccc4c(c3)C(=O)N(C3CCC(=O)NC3=O)C4=O)c2C)-n2c(C)nnc21 (some centres not stated),DC50,[32],0.005 µM
COc1cc(N2CCC(N3CCN(C(=O)CCCCCCCCC(=O)N[C@H](C(=O)N4C[C@H](O)C[C@H]4C(=O)NCc4ccc(-c5scnc5C)cc4)C(C)(C)C)CC3)CC2)ccc1Nc1ncc(Cl)c(Nc2ccccc2P(C)(C)=O)n1,DC50,[33],0.0075 µM

# From ChEMBL document CHEMBL5338728, “Advancing Strategies for Proteolysis-Targeting Chimera Design” (J Med Chem, 2023)
